One block for each molecule: values may come before it.
What was measured:
[1] = tested on: C57BI/6 mice; experiment: Locomotor chambers and Morris water maze after LPS in mice; type: in vivo, mouse; conditions: for distance swum to hidden platform in training, NSAID alone: first training session, no LPS; for probe trial performance, NSAID alone: no LPS challenge
Description: Behavioral testing. Locomotor activity was measured in 17×17 inch chambers lined with three 16-beam infrared arrays in photocell boxes (MED Associates, Inc., St. Albans, Vt.). The mice were placed into the chambers and their locomotor activity was recorded for 20 minutes 4 days after LPS was injected (on Day 4). A 50 msec scanning rate was used for measuring beams broken. Distance traveled was analyzed for estimates of locomotion based on the movement of a given distance and resting delay (movement in a given period) using Open Field Activity software (MED Associates, Inc., St. Albans, Vt.).
Hippocampus-dependent learning and memory was assessed in the standard Morris water maze task. All hippocampus-dependent training and testing was conducted in a black circular tank (170 cm diameter×43 cm height) filled water made opaque using white non-toxic Tempra paint (Rich Art Color Co. Inc, Northvale, Calif.; training and testing). A platform (13 cm diameter×28.5 cm height) was hidden 1 cm below the water surface for platform shaping and training trials. Time and distance traveled in the pool was recorded using Videotrack Automated Behavioral Analysis System (Viewpoint Life Sciences Inc., Otterburn Park, Quebec).
Platform shaping began three days before platform training (Days 25-27). In the absence of extra-maze cues, mice were released from random points in the pool (filled with clearwater) near the platform and gently guided to the platform. Shaping trials continued until the mouse remained on the platform for 15 s over 3 consecutive trials on each of the three sessions.
[…] In the presence of extra-maze cues, the mice were released from the middle of the east, south, or west quadrant, facing the pool wall, and were given 120 s to find the platform hidden beneath opaque water in the center of the north quadrant. […] Sessions of 6 training trials (inter-trial interval of approximately 30 min) were conducted daily until all the mice located the platform in an average of 15 s or less within a session. […] Pathlength and latency were analyzed as measures of learning, swim speed was analyzed as a measure of sensorimotor ability and % time spent in outer annulus was analyzed as a measure of anxiety.
Probe Trial Testing was conducted at 1 week after mice reached criterion in the platform training phase of the experiment. The room setup was identical for platform training and probe trials, with the exception that the platform was removed from the pool during probe trials. The mice were given a single trial in which they were released from the center of the pool and then after 3 minutes were removed from the location that held the platform during training trials. Percent time and distance spent in each quadrant were analyzed as measures of memory, swim speed and total distance swum were analyzed as measures of sensorimotor ability and % time and distance spent in the outer annulus were analyzed as measures of anxiety. After the last probe trial, we ran four daily sessions of reversal trials (4 trials per session) in which mice were given 120 s to locate the platform hidden beneath opaque water in the south quadrant to better interpret whether probe trial performance was indicative of memory or perseveration. […] A visible platform session (2 trials) was administered after the final reversal trial to further test sensorimotor ability. Reversal and visible platform trial performance was scored identically to platform training performance.

[2] = tested on: adult hippocampus-derived neural precursor cells; experiment: In vitro neuronal differentiation (doublecortin) of hippocampal neural progenitor cells, 60 hours; type: cell-based, rat; conditions: for effect on in vitro neurogenesis (Dcx-expressing cells relative to control): 60 hours differentiation
Description: Neuroinflammation could inhibit neurogenesis by a variety of mechanisms, including stimulation of the HPA axis with subsequent elevation of gluccocorticoids, alterations in the relationships between progenitor cells and cells of the neuro-vasculature, or direct effects of activated microglia on the precursor cells. To determine the extent to which microglial activation might directly affect neural stem/progenitor cells, microglia were stimulated in vitro with LPS. LPS is a potent activator of microglia and up-regulates the elaboration of pro-inflammatory cytokines, including IL-6 and TNF-α. LPS-stimulated or resting microglia were then co-cultured with normal neural stem cells from the hippocampus under conditions that typically stimulate the differentiation of 30 to 40% of the progenitor cells into immature Dcx-expressing neurons (normalized to a value of 1 in FIG. 2A, control). Neurogenesis in the presence of microglia was assessed as the increase or decrease in Dcx-expressing cells relative to control. Co-culture with activated, but not resting, microglia decreased in vitro neurogenesis to approximately half of control levels (FIG. 2A). LPS added directly to precursor cells had no effect on neurogenesis.
To determine if this effect was due to soluble factors or due to cell-cell contact, hippocampal precursor cells were differentiated in the presence of media pre-conditioned by resting or activated microglia.
Activated microglia produce the potent pro-inflammatory cytokines interleukin-1β (IL-1β), tumor necrosis factor-α (TNF-α), interferon-γ (INF-γ) and interleukin-6 (IL-6). Progenitor cells were allowed to differentiate in the presence of each cytokine and the relative expression of Dcx was scored after 60 hours. […] Addition of neutralizing anti-IL-6 antibody to CM from activated microglia was able to fully restore in vitro neurogenesis (FIG. 2A). This implicated IL-6 as a key inhibitor of neurogenesis in microglial CM. […] In contrast to neurogenesis, gliogenesis was unaffected by IL-6 exposure as indicated by the lack of change in the number of cells expressing the astrocyte (glial fibrillary acidic protein, GFAP) or early oligodendrocyte (NG2) markers relative to control cultures (FIG. 2E). The hippocampal precursors used in this study do express the IL-6 receptor, as confirmed by RT-PCR (FIG. 5).
Progenitor Cell Culture Adult hippocampus-derived neural precursor cells were isolated from adult rat hippocampus and cultured as previously described. Briefly, adult female Fisher-344 rats were deeply anesthetized with sodium pentobarbital and were dissected immediately. Hippocampi were enzymatically dissociated with papain (2.5 U/ml; Worthington, Freehold, N.J.)-dispase II (1 U/ml; Boehringer Mannheim, Indianapolis, Ind.)-DNase I (250 U/ml, Worthington) solution. Digested tissue was then washed with DMEM-10% fetal calf serum (FCS) and subsequently mixed with PBS-equilibrated Percoll solution to a final concentration of 35% Percoll. The Percoll solution was made by mixing nine parts of Percoll (Amersham Pharmacia Biotech, Uppsala, Sweden) with one part of 10× PBS. The cell suspension was then fractionated by centrifugation for 10 min at 1000×gravity. Floating myelin and tissue debris were discarded and the cell pellet re-suspended in 65% Percoll solution and fractionated again by centrifugation for 10 min at 1000×g. The floating neural precursors were collected, washed free of Percoll, and plated onto poly-L-ornithine/laminin-coated dishes in DMEM/F12 (1:1) containing 10% FCS medium for 24 hrs; then medium was replaced with serum-free growth medium consisting of DMEM/F12 (1:1) supplemented with N2 supplement (Life Technologies, Gaithersburg, Md.) and 20 ng/ml of human recombinant FGF-2 (Peprotech, Rocky Hill, N.J.). Cell lines were labeled via infection with replication deficient GFP-expressing recombinant retrovirus LZRS-CAMut4GFP. […]

[3] = tested on: neural progenitor cells; experiment: Differentiation of mouse neural progenitor cells with recombinant MCP-1, 5 days; type: cell-based; conditions: rmMCP-1 up to 100 ug/ml
Description: To determine if MCP-1 was acting directly on neural progenitor cells to mediate these effects, brains from wild type, MCP-1^−/−, or CCR2^−/− mice were enzymatically dissociated and neurosphere cultures established in growth medium (Neurobasal-A, B27 supplement, 10 ng/ml EGF, 20 ng/ml FGF-2). Neurospheres were dissociated at passage 2-3 and plated as monolayers on laminin coated dishes and then induced to differentiate by replacing growth medium with differentiation medium (Neurobasal-A, B27, 1 ng/ml FGF-2, 100 nM all-trans retinoic acid, 10 ng/ml BDNF, 10 ng/ml NT3). Increasing concentrations of recombinant mouse MCP-1 (rmMCP-1) were added to the medium and cells were allowed to differentiate for 5 days. Cells were then fixed and stained for Dcx (FIG. 11C-C). Within 5 days of differentiation, a proportion of cells became positive for Dcx. […] Similarly, addition of rmMCP-1 up to a final concentration of 100 ug/ml had no effect on the number of neurons produced.
Progenitor Cell Culture and Differentiation Whole brains from PO mouse pups were enzymatically digested with a mixture of papain, neutral protease, and DNAse. Neurospheres were cultured on uncoated plates with medium containing Neurobasal A (Gibco), L-glutamine, PSF, B-27 without vitamin A, 40 ng/ml FGF-2, and 40 ng/ml EGF. Cultures were passaged in parallel when reaching confluence and total viable cell counts were made using a hemocytometer to score trypan blue-excluding cells at each passage. Cells were induced to differentiate by plating dissociated cells into laminin-coated multi-chamber tissue culture slides (Nunc) in differentiation media, Neurobasal A, B-27 without vitamin A, 1% fetal bovine serum, 100 nM all trans-retinoic acid, 1 ng/ml FGF-2, 10 ng/ml BDNF, and 10 ng/ml NT3. […] Total nuclei per sample site was scored using DAPI, neurons were scored on the basis of Dcx immunoreactivity. No significant differences were detected in either growth or differentiation between wild type and MCP-1^−/− or CCR2^−/− mice

probe trial performance, NSAID alone [1]: performed as badly as LPS-treated mice
probe trial performance, NSAID alone ([1]; listed as celebrex): alone significantly impaired memory
Molecule: Cc1ccc(-c2cc(C(F)(F)F)nn2-c2ccc(S(N)(=O)=O)cc2)cc1 [Celebrex, celecoxib]
distance swum to hidden platform in training, NSAID alone [1]: slight but significant increased distance swum
distance swum to hidden platform in training, NSAID alone ([1]; listed as celebrex): slight but significant initial increase in swimming distance

Molecule: TNF-α
decrease of in vitro neurogenesis (relative expression of Dcx) ([2]; recombinant IL-6 50 ng/ml or TNF-α 20 ng/ml, 60 hours): approximately 50%

Molecule: rmMCP-1: recombinant mouse monocyte chemoattractant protein-1 (Peprotech)
extent of neuronal arborization [3]: Neither was the extent of arborization influenced
number of Dcx-positive neurons produced [3]: no effect
number of Dcx-positive neurons produced ([3]; listed as MCP-1): does not directly affect

B1: IL-1β: recombinant rat interleukin 1β (protein, UniProt Q63264 117-268, looked up)
Interleukin-1 beta: VPIRQLHCRLRDEQQKCLVLSDPCELKALHLNGQNISQQVVFSMSFVQGETSNDKIPVALGLKGLNLYLSCVMKDGTPTLQLESVDPKQYPKKKMEKRFVFNKIEVKTKVEFESAQFPNWYISTSQAEHRPVFLGNSNGRDIVDFTMEPVSS
effect on in vitro neurogenesis (Dcx-expressing cells relative to control) [2]: not significant

B2: INF-γ: recombinant rat interferon γ (protein, UniProt P01581 23-156, looked up)
Interferon gamma: QGTLIESLESLKNYFNSSSMDAMEGKSLLLDIWRNWQKDGNTKILESQIISFYLRLFEVLKDNQAISNNISVIESHLITNFFSNSKAKKDAFMSIAKFEVNNPQIQHKAVNELIRVIHQLSPESSLRKRKRSRC
effect on in vitro neurogenesis (Dcx-expressing cells relative to control) [2]: not significant
